Source: publication PMC12066480, “Optimization of neuron-specific interfering peptides targeting GABAB receptor downregulation for proteolytic stability for conferring neuroprotection in a mouse model of cerebral ischemia” (Frontiers in Pharmacology, 2025)
Ends that are not written are not given here.

What was measured:
[1] = test system: cultured neuron/glia cells
[2] = test system: cultured neurons (neuron/glia cultures)
[3] = Proteolytic stability in blood serum, Western blot; conditions: peptide stock 1 μg/μL added 1:5, 37°C, 3 independent experiments and one technical replicate (Figures 3A-C)
Description: For testing the resistance of the peptides to proteolytic degradation blood serum was prepared from blood collected from naïve mice decapitated under deep isoflurane anesthesia. The blood samples were allowed to clot at RT for 10–15 min, followed by centrifugation at 2000 g for 10 min and 4°C to separate the serum. The serum was stored at −80°C until used.
For testing, a peptide stock solution of 1 μg/μL was added directly to the serum in a ratio of 1:5 and incubated at 37°C for different times. After incubation, the mixture was diluted 1:4 with PBS and the samples were incubated with 2x Laemmli sample buffer (Bio-Rad) for 1 h at 37°C. The samples were subjected to tricine-sodium dodecyl sulfate-polyacrylamide gel electrophoresis (SDS-PAGE) using 1 mm thick 16% gels modified for the detection of small peptides as described by ([Too et al., 1994]).
Proteins were transferred onto 0.1 μm nitrocellulose membranes, previously coated with a solution of 0.5% gelatine ([Too et al., 1994]), in a semi-dry transfer cell (Trans-Blot SD; Bio-Rad) for 70 min at 10 V. After transfer, the blots were immediately incubated in 4% PFA for 5 min, thoroughly washed and blocked for 1 h in PBS containing 5% non-fat dry milk at room temperature. Thereafter, the blots were incubated with Alexa Fluor 750-streptavidin overnight at 4°C in PBS containing 5% non-fat dry milk. The blots were washed three times for 10 min with TBST and immunoreactivity was detected by the ODYSSEY CLx scanner (LI-COR Biosciences). For quantification of signal intensity, the images were analyzed with the Image Studio software (LI-COR Biosciences).

[4] = test system: cultured neurons (neuron/glia cultures); assay: Peptide uptake into individual cultured neurons, colocalization immunocytochemistry; conditions: 1 h

Sequence: YTIWMPENRRRRRRRRR [Figure 2A peptide 2]
- uptake of truncated RVG peptides (attached to 9R) into cultured neurons, screening [1]: retained neuron-specific uptake
- colocalization with GABAB receptors and neuronal marker NeuN [2]: selectively taken up by neurons

Sequence: GTPCDIFTRRRRRRRRRFQFTQNQKKEDSKTSTSV [PP2A-Pep]
- degradation after incubation for up to 72 h in mouse serum [3]: did not result in an appreciable degradation

Sequence: YTIWMPENPRPGTPCDIFTNSRGKRASNGGGGRRRRRRRRR [Figure 1A peptide 12]
- uptake into cultured neuron/glia cells (Figure 1A) [1]: did not affect its uptake into the cultured cells

Sequence: GTPCDIFTRRRRRRRRRLQDTPEKTTYIK [CHOP-Pep]
- degradation after incubation for up to 72 h in mouse serum [3]: did not result in an appreciable degradation

Sequence: GTPCDIFTRRRRRRRRR [Figure 2A peptide 4]
- uptake of truncated RVG peptides (attached to 9R) into cultured neurons, screening [1]: retained neuron-specific uptake
- colocalization with GABAB receptors and neuronal marker NeuN [2]: selectively taken up by neurons
- peptide uptake into individual neurons by immunocytochemistry ([4]; 10 μg/mL, normalized to peptide 4, 50 neurons per sequence, two independent experiments (Figure 2B)): considerably more efficiently taken up by neurons than the other peptides tested
- cell-type selectivity of uptake (NeuN vs GFAP colocalization) ([4]; NeuN, GFAP, DAPI, 3 independent determinations in triplicates (Figure 2C)): lack of uptake by astrocytes

Sequence: GTPCDIFTRRRRRRRRRSETQDTMKTGSSTNNNEEEKSR [CaMKII-Pep]
- degradation after incubation for up to 72 h in mouse serum [3]: did not result in an appreciable degradation

Sequence: FTNSRGKRRRRRRRRRR [Figure 2A peptide 5]
- uptake of truncated RVG peptides (attached to 9R) into cultured neurons, screening [1]: retained neuron-specific uptake
- colocalization with GABAB receptors and neuronal marker NeuN [2]: selectively taken up by neurons
